Patent US7741354B2, “Inhibitors of glutaminyl cyclase” (Probiodrug AG, priority 2006, dated 2010)

Each molecule was assayed against hQC (Homo sapiens, UniProt Q16769) (assay: Fluorometric (fluorescent) assay of hQC inhibition, IC50). Settings: hQC inhibition; read-out: IC50.
Assay type: biochemical
Procedure: All compounds were immediately tested regarding their activity as hQC inhibitors.
The purity of the compounds was determined by HPLC-MS. The IC50 value against hQC was measured using the fluorescent assay.
All measurements were performed with a BioAssay Reader HTS-7000Plus for microplates (Perkin Elmer) at 30° C. QC activity was evaluated fluorometrically using H-Gln-βNA. The samples consisted of 0.2 mM fluorogenic substrate, 0.25 U pyroglutamyl aminopeptidase (Unizyme, Horsholm, Denmark) in 0.2 M Tris/HCl, pH 8.0 containing 20 mM EDTA and an appropriately diluted aliquot of QC in a final volume of 250 μl. Excitation/emission wavelengths were 320/410 nm. The assay reactions were initiated by addition of glutaminyl cyclase. QC activity was determined from a standard curve of β-naphthylamine under assay conditions. One unit is defined as the amount of QC catalyzing the formation of 1 μmol pGlu-βNA from H-Gln-βNA per minute under the described conditions.
In a second fluorometric assay, QC was activity determined using H-Gln-AMC as substrate. Reactions were carried out at 30° C. utilizing the NOVOStar reader for microplates (BMG labtechnologies). The samples consisted of varying concentrations of the fluorogenic substrate, 0.1 U pyroglutamyl aminopeptidase (Qiagen) in 0.05 M Tris/HCl, pH 8.0 containing 5 mM EDTA and an appropriately diluted aliquot of QC in a final volume of 250 μl. Excitation/emission wavelengths were 380/460 nm. The assay reactions were initiated by addition of glutaminyl cyclase. QC activity was determined from a standard curve of 7-amino-4-methylcoumarin under assay conditions. The kinetic data were evaluated using GraFit sofware.
For inhibitor testing, the sample composition was the same as described above, except of the putative inhibitory compound added. For a rapid test of QC-inhibition, samples contained 4 mM of the respective inhibitor and a substrate concentration at 1 KM. For detailed investigations of the inhibition and determination of Ki-values, influence of the inhibitor on the auxiliary enzymes was investigated first. […] The inhibitory constant was evaluated by fitting the set of progress curves to the general equation for competitive inhibition using GraFit software.

Chain of hQC (Q16769 29-361): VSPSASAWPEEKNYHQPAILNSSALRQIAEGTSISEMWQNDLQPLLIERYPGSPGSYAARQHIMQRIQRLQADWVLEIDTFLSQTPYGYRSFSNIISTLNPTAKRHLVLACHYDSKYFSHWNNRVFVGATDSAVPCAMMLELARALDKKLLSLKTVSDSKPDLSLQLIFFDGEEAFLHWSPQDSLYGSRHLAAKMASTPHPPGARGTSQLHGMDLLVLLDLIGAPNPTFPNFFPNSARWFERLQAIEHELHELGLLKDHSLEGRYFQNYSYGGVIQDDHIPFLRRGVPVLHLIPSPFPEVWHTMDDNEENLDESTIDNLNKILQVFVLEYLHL

**Q.** Which IC50 does the source give for `OCc1ccc(C(Nc2ccc3[nH]cnc3c2)c2nnnn2-c2ccccc2OCc2ccccc2)o1` (stereo not shown) [compound 143, (5-{(1H-Benzoimidazol-5-ylamino)-[1-(2-benzyloxy-phenyl)-1H-tetrazol-5-yl]-methyl}-furan-2-yl)-methanol] here?
**A.** Its IC50 is 4.9 µM.

**Q.** With `COc1ccc(C(Nc2ccc3[nH]cnc3c2)c2nnnn2CC2CCCO2)cc1F` (stereo not shown) [compound 163, (1H-Benzoimidazol-5-yl)-{(3-fluoro-4-methoxy-phenyl)-[1-(tetrahydro-furan-2-ylmethyl)-1H-tetrazol-5-yl]-methyl}-amine] as the molecule, how does the IC50 read?
**A.** The IC50 was 8.5 µM.

**Q.** `Oc1ccc(Cl)cc1C(Nc1ccc2[nH]cnc2c1)c1nnnn1C1CCCCC1` (stereo not shown) [compound 193, 2-[(1H-Benzoimidazol-5-ylamino)-(1-cyclohexyl-1H-tetrazol-5-yl)-methyl]-4-chloro-phenol] was tested. Which IC50 did it give?
**A.** The IC50 was 5.8 µM.

**Q.** With `O=C1CCCN1CCCn1nnnc1C(Nc1ccc2[nH]cnc2c1)c1ccc(Br)cc1` (stereo not shown) [compound 194, 1-(3-{5-[(1H-Benzoimidazol-5-ylamino)-(4-bromo-phenyl)-methyl]-tetrazol-1-yl}-propyl)-pyrrolidn-2-one] as the molecule, how does the IC50 read?
**A.** Its IC50 is 8.5 µM.

**Q.** For `O=C(Cn1nnnc1C(Nc1ccc2[nH]cnc2c1)c1ccc(Br)cc1)N1CCc2ccccc2C1` (stereo not shown) [compound 199, 2-{5-[(1H-Benzoimidazol-5-ylamino)-(4-bromo-phenyl)-methyl]-tetrazol-1-yl}-1-(3,4-dihydro-1H-isoquinolin-2-yl)-ethanone], which IC50 is on record?
**A.** Its IC50 is 2.2 µM.

**Q.** Which IC50 does the source give for `COc1ccc(C(Nc2ccc3[nH]cnc3c2)c2nnnn2-c2ccccc2OCc2ccccc2)cc1` (stereo not shown) [compound 210, (1H-Benzoimidazol-5-yl)-[[1-(2-benzyloxy-phenyl)-1H-tetrazol-5-yl]-(4-methoxy-phenyl)-methyl]-amine] here?
**A.** The IC50 was 2.2 µM.

**Q.** With `CC(CC(Nc1ccc2[nH]cnc2c1)c1nnnn1-c1ccc(Oc2ccccc2)cc1)c1ccccc1` (stereo not shown) [compound 204, (1H-Benzoimidazol-5-yl)-{1-[1-(4-phenoxy-phenyl)-1H-tetrazol-5-yl]-3-phenyl-butyl}-amine] as the molecule, how does the IC50 read?
**A.** Its IC50 is 6.7 µM.

**Q.** For `COc1ccccc1C(Nc1ccc2[nH]cnc2c1)c1nnnn1Cc1ccccc1` (stereo not shown) [compound 151], which IC50 is on record?
**A.** The IC50 was 5.8 µM.

**Q.** Which IC50 does the source give for `COc1ccc(C(Nc2ccc3[nH]cnc3c2)c2nnnn2Cc2ccc(Cl)cc2)cc1F` (stereo not shown) [compound 125, (1H-Benzoimidazol-5-yl)-[[1-(4-chloro-benzyl)-1H-tetrazol-5-yl]-(3-fluoro-4-methoxy-phenyl)-methyl]-amine] here?
**A.** The IC50 was 3.1 µM.

**Q.** `C/C=C/C=C/C(Nc1ccc2[nH]cnc2c1)c1nnnn1CCc1cccs1` (stereo not shown) [compound 161, (1H-Benzoimidazol-5-yl)-{(2E,4E)-1-[1-(2-thiophen-2-yl-ethyl)-1H-tetrazol-5-yl]-hexa-2,4-dienyl}-amine] was tested. Which IC50 did it give?
**A.** The IC50 was 5.8 µM.

**Q.** How did the IC50 turn out when `CC1(C)OCC(Cn2nnnc2C(Nc2ccc3[nH]cnc3c2)c2cnc3ccccc3c2)O1` (stereo not shown) [compound 156, (1H-Benzoimidazol-5-yl)-{[1-(2,2-dimethyl-[1,3]dioxolan-4-ylmethyl)-1H-tetrazol-5-yl]-quinolin-3-yl-methyl}-amine] was run?
**A.** Its IC50 is 4.9 µM.

**Q.** Which IC50 does the source give for `CCOC(=O)C1CCCCC1n1nnnc1C(CC(C)c1ccc(C)o1)Nc1ccc2[nH]cnc2c1` (stereo not shown) [compound 202] here?
**A.** Its IC50 is 6.7 µM.

**Q.** With `CCOC(=O)C1CCCCC1n1nnnc1C(Nc1ccc2[nH]cnc2c1)c1ccc(SC)cc1` (stereo not shown) [compound 150] as the molecule, how does the IC50 read?
**A.** The IC50 was 4 µM.

Same assay, conditions: purified compound from preparative synthesis; fluorescent assay; read-out: IC50 hQC

**Q.** How did the IC50 turn out when `CN(C)CCn1nnnc1C(NCCCn1ccnc1)C1CCC=CO1` (stereo not shown) [Compound 38, {(3,4-Dihydro-2H-pyran-2-yl)-[1-(2-dimethylamino-ethyl)-1H-tetrazol-5-yl]-methyl}-(3-imidazol-1-yl-propyl)-amine] was run?
**A.** The IC50 was 2.88 µM.

**Q.** For `Cc1ccc(O)c(C(NCCCn2ccnc2)c2nnnn2CC(C)(C)C)c1` (stereo not shown) [Compound 63, 2-[[1-(2,2-Dimethyl-propyl)-1H-tetrazol-5-yl]-(3-imidazol-1-yl-propylamino)-methyl]-4-methyl-phenol], which IC50 is on record?
**A.** The IC50 was 2.37 µM.

Same assay, conditions: read-out: IC50

**Q.** `COc1ccc(C(Nc2ccc3[nH]cnc3c2)c2nnnn2C2CCCCC2)cc1` (stereo not shown) [compound 72, (1H-Benzoimidazol-5-yl)-[(1-cyclohexyl-1H-tetrazol-5-yl)-(4-methoxy-phenyl)-methyl]-amine] was tested. Which IC50 did it give?
**A.** The IC50 was 2.2 µM.

**Q.** Which IC50 does the source give for `C=CCn1nnnc1C(NCCCn1ccnc1)c1cc(C)ccc1O` (stereo not shown) [compound 44, 2-[(1-Allyl-1H-tetrazol-5-yl)-(3-imidazol-1-yl-propylamino)-methyl]-4-methyl-phenol] here?
**A.** Its IC50 is 4.9 µM.

**Q.** For `Cc1ccc2c(C(NCCCn3ccnc3)c3nnnn3C[C@@H]3CCCO3)c[nH]c2c1` (stereo partly drawn) [compound 16, (3-Imidazol-1-yl-propyl)-((6-methyl-1H-indol-3-yl)-{1-[(S)-1-(tetrahydro-furan-2-yl)methyl]-1H-tetrazol-5-yl}-methyl)-amine], which IC50 is on record?
**A.** Its IC50 is 7.6 µM.

**Q.** Which IC50 does the source give for `COC(=O)Cn1nnnc1C(NCCCn1ccnc1)c1ccc2cccc(O)c2n1` (stereo not shown) [compound 52] here?
**A.** The IC50 was 4.9 µM.

**Q.** For `c1ccc(C(c2ccccc2)n2nnnc2C(Nc2ccc3[nH]cnc3c2)c2ccc3nsnc3c2)cc1` (stereo not shown) [compound 112, [(1-Benzhydryl-1H-tetrazol-5-yl)-benzo[c][1,2,5]thia-diazol-5-yl-methyl]-(1H-benzoimidazol-5-yl)-amine], which IC50 is on record?
**A.** Its IC50 is 5.8 µM.

**Q.** `COc1ccc(C(Nc2ccc3[nH]cnc3c2)c2nnnn2Cc2ccccc2Cl)c(C)c1` (stereo not shown) [compound 77, (1H-Benzoimidazol-5-yl)-[[1-(2-chloro-benzyl)-1H-tetrazol-5-yl]-(4-methoxy-2-methyl-phenyl)-methyl]-amine] was tested. Which IC50 did it give?
**A.** The IC50 was 1.3 µM.

**Q.** For `COCCn1nnnc1C(NCCCn1ccnc1)c1ccc2ccccc2n1` (stereo not shown) [compound 42, (3-Imidazol-1-yl-propyl)-{[1-(2-methoxy-ethyl)-1H-tetrazol-5-yl]-quinolin-2-yl-methyl}-amine], which IC50 is on record?
**A.** The IC50 was 5.8 µM.

**Q.** With `CC(CC(Nc1ccc2[nH]cnc2c1)c1nnnn1C(C)(C)C)c1ccccc1` (stereo not shown) [compound 106, (1H-Benzoimidazol-5-yl)-[1-(1-tert-butyl-1H-tetrazol-5-yl)-3-phenyl-butyl]-amine] as the molecule, how does the IC50 read?
**A.** The IC50 was 6.7 µM.

**Q.** How did the IC50 turn out when `CC1=CCCC[C@@H]1C(NCCCn1ccnc1)c1nnnn1Cc1ccc(Cl)cc1` (stereo partly drawn) [compound 8, [[1-(4-Chloro-benzyl)-1H-tetrazol-5-yl]-((S)-2-methyl-cyclohex-2-enyl)-methyl]-(3-imidazol-1-yl-propyl)-amine] was run?
**A.** Its IC50 is 4 µM.

**Q.** How did the IC50 turn out when `CSCCC(Nc1ccc2[nH]cnc2c1)c1nnnn1C(c1ccccc1)c1ccccc1` (stereo not shown) [compound 95, [1-(1-Benzhydryl-1H-tetrazol-5-yl)-3-methylsulfanyl-propyl]-(1H-benzoimidazol-5-yl)-amine] was run?
**A.** Its IC50 is 4.9 µM.

**Q.** For `COC(=O)Cn1nnnc1C(NCCCn1ccnc1)c1ccc(Cl)c(Cl)c1` (stereo not shown) [compound 50, {5-[(3,4-Dichloro-phenyl)-(3-imidazol-1-yl-propylamino)-methyl]-tetrazol-1-yl}-acetic methyl ester], which IC50 is on record?
**A.** The IC50 was 4 µM.

**Q.** With `CN(C)CCn1nnnc1C(NCCCn1ccnc1)C1CCC=CO1` (stereo not shown) [Compound 38, {(3,4-Dihydro-2H-pyran-2-yl)-[1-(2-dimethylamino-ethyl)-1H-tetrazol-5-yl]-methyl}-(3-imidazol-1-yl-propyl)-amine] as the molecule, how does the IC50 read?
**A.** Its IC50 is 0.4 µM.

**Q.** For `Cc1ccc(O)c(C(NCCCn2ccnc2)c2nnnn2CC(C)(C)C)c1` (stereo not shown) [Compound 63, 2-[[1-(2,2-Dimethyl-propyl)-1H-tetrazol-5-yl]-(3-imidazol-1-yl-propylamino)-methyl]-4-methyl-phenol], which IC50 is on record?
**A.** The IC50 was 0.04 µM.

**Q.** With `CCCCn1nnnc1C(NCCCn1ccnc1)c1ccc2[nH]ccc2c1` (stereo not shown) [compound 21, [(1-Butyl-1H-tetrazol-5-yl)-(1H-indol-5-yl)-methyl]-(3-imidazol-1-yl-propyl)-amine] as the molecule, how does the IC50 read?
**A.** Its IC50 is 6.7 µM.

**Q.** How did the IC50 turn out when `CCCCn1nnnc1C(NCCCn1ccnc1)c1ccc2cccc(O)c2n1` (stereo not shown) [compound 20, 2-[(1-Butyl-1H-tetrazol-5-yl)-(3-imidazol-1-yl-propylamino)-methyl]-quinolin-8-ol] was run?
**A.** The IC50 was 2.2 µM.

**Q.** `CCCCn1nnnc1C(NCCCn1ccnc1)c1cc2ccccc2o1` (stereo not shown) [compound 23] was tested. Which IC50 did it give?
**A.** The IC50 was 9.4 µM.

**Q.** Which IC50 does the source give for `CC(C)(C)Cn1nnnc1C(NCCCn1ccnc1)c1ccc2ccccc2n1` (stereo not shown) [compound 66, {[1-(2,2-Dimethyl-propyl)-1H-tetrazol-5-yl]-quinolin-2-yl-methyl}-(3-imidazol-1-yl-propyl)-amine] here?
**A.** The IC50 was 3.1 µM.

**Q.** Which IC50 does the source give for `Fc1cc(C(Nc2ccc3[nH]cnc3c2)c2nnnn2C2CCCCC2)ccc1Cl` (stereo not shown) [compound 107, (1H-Benzoimidazol-5-yl)-[(4-chloro-3-fluoro-phenyl)-(1-cyclohexyl-1H-tetrazol-5-yl)-methyl]-amine] here?
**A.** Its IC50 is 4.9 µM.

**Q.** `COCCn1nnnc1C(NCCCn1ccnc1)c1cc(C)ccc1O` (stereo not shown) [compound 39, 2-{(3-Imidazol-1-yl-propylamino)-[1-(2-methoxy-ethyl)-1H-tetrazol-5-yl]-methyl}-4-methyl-phenol] was tested. Which IC50 did it give?
**A.** The IC50 was 8.5 µM.

**Q.** `CCCOc1cccc(C(Nc2ccc3[nH]cnc3c2)c2nnnn2Cc2cccnc2)c1` (stereo not shown) [compound 74, (1H-Benzoimidazol-5-yl)-[(3-propoxy-phenyl)-(1-pyridin-3-ylmethyl-1H-tetrazol-5-yl)-methyl]-amine] was tested. Which IC50 did it give?
**A.** Its IC50 is 2.2 µM.

**Q.** How did the IC50 turn out when `N#Cc1cc(C(NCCCn2ccnc2)c2nnnn2Cc2ccc(Cl)cc2)ccc1F` (stereo not shown) [compound 5, 5-[[1-(4-Chloro-benzyl)-1H-tetrazol-5-yl]-(3-imidazol-1-yl-propylamino)-methyl]-2-fluoro-benzonitrile] was run?
**A.** The IC50 was 6.7 µM.

**Q.** With `CCOC(=O)C1CCCCC1n1nnnc1C(Nc1ccc2[nH]cnc2c1)c1ccc(Cl)cc1` (stereo not shown) [compound 94] as the molecule, how does the IC50 read?
**A.** Its IC50 is 9.4 µM.
